From patent US8058295B2, “Cystic fibrosis transmembrane conductance regulator protein inhibitors and uses thereof” (The Regents of the University of California, priority 2002, dated 2011)
Read-outs that look alike come from different tables or passages of the source.

Tests used:
[1] = test system: cholera toxin-induced fluid secretion; set-up: species or system rats; settings: in vivo
CFTR = target: T1, CFTR (Mus musculus, UniProt P26361); experiment: Short-circuit current in mouse ileum
T1 construct: from tissue; host or cells: mouse ileum (wildtype CD1 mice)
T1 sequence (P26361 whole entry): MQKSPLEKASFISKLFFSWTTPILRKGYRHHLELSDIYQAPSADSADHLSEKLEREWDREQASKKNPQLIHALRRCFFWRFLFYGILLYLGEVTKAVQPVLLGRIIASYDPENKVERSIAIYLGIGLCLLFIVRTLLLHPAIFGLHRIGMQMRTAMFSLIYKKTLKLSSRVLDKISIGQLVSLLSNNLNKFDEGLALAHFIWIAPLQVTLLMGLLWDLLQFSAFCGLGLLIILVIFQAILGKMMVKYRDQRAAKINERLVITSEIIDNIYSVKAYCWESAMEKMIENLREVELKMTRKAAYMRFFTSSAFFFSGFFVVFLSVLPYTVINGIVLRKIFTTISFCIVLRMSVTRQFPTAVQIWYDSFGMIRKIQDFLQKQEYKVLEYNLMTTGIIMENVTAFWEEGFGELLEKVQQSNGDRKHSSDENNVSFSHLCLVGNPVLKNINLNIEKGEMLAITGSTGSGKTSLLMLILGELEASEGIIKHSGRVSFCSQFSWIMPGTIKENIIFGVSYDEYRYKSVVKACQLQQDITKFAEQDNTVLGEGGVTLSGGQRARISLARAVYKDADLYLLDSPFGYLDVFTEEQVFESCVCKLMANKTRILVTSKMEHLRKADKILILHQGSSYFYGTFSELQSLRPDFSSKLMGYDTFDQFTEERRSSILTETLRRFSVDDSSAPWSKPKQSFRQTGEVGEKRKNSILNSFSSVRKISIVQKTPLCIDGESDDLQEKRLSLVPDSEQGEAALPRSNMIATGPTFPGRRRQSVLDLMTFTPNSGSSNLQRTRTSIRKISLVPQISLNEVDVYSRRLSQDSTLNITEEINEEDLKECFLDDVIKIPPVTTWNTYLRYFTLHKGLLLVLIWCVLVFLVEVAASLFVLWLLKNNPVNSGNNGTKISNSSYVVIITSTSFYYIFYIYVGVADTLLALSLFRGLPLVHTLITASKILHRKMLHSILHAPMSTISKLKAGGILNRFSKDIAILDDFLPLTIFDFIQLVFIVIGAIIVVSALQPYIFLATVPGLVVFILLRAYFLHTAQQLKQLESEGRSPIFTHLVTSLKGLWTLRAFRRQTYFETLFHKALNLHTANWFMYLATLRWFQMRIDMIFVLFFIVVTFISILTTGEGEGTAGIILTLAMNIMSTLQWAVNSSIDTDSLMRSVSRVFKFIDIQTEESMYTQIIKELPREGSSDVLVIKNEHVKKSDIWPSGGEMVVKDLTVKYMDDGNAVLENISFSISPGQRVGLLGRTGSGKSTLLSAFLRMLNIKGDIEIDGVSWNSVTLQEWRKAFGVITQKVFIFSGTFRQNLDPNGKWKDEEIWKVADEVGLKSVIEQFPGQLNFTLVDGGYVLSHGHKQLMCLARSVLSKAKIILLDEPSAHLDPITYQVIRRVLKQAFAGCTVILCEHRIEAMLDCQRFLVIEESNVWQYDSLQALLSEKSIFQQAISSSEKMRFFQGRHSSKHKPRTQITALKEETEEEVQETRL

[2] = Tissue distribution in rats after intravenous bolus; format: in vivo; settings: 60 min after i.v. bolus
Method: (§1) A bolus of ^14C-CFTRinh-172 (2 μCi) was administered intravenously over 1 min in mice (male CD1 mice, 30-35 grams) by tail vein. Mice were sacrificed at 5, 30, 120 and 240 min. Organs were removed, weighed and homogenized in distilled water (10-50 vol %). Radioactivity was determined by scintillation counting of the homogenates (25-50 μL) and expressed as total ^14C-radioactivity per organ (or per gram tissue for skeletal muscle). At the same time blood, urine and bile (from gallbladder or duodenum) were collected and ^14C-radioactivity was measured and expressed per mL of fluid. Elimination studies were done by collections of urine and stool over the first 24 hr after ^14C-CFTRinh-172 administration. Tissue distribution studies were also done on rats prepared as for pharmacokinetic studies.

[3] = test system: cholera toxin-induced fluid secretion; set-up: species or system mice; settings: mouse, in vivo, po
[4] = pKa by spectrophotometric pH titration; format: physicochemical
[5] = Tissue distribution and elimination in mice after intravenous bolus; format: in vivo
Method: as §1

urea transporter (UT-B) = target: T2, urea transporter (UT-B) (Homo sapiens, UniProt Q13336); experiment: Urea transporter block; settings: 5 μM
T2 sequence (Q13336 1-389): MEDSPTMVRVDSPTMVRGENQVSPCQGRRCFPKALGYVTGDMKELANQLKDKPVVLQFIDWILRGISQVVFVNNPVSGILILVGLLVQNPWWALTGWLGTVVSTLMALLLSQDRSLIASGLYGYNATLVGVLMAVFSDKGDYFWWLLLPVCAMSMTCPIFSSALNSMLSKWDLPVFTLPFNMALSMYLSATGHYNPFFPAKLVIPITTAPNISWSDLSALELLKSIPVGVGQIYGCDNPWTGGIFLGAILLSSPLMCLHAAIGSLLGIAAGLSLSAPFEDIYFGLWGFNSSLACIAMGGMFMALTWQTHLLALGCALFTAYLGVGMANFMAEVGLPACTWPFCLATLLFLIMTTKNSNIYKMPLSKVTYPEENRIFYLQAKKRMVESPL

FRT cells = experiment: Cell toxicity by dihydrorhodamine method; format: cell-based, rat; settings: dihydrorhodamine assay, after 24 hours
wildtype CFTR = wildtype CFTR (Homo sapiens, UniProt P13569); experiment: Short-circuit current in primary culture of human bronchial epithelial cells; format: cell-based; set-up: cells that natively express wildtype CFTR; endogenous in cells; host or cells: primary human bronchial epithelial cells
Chain of wildtype CFTR (P13569 whole entry): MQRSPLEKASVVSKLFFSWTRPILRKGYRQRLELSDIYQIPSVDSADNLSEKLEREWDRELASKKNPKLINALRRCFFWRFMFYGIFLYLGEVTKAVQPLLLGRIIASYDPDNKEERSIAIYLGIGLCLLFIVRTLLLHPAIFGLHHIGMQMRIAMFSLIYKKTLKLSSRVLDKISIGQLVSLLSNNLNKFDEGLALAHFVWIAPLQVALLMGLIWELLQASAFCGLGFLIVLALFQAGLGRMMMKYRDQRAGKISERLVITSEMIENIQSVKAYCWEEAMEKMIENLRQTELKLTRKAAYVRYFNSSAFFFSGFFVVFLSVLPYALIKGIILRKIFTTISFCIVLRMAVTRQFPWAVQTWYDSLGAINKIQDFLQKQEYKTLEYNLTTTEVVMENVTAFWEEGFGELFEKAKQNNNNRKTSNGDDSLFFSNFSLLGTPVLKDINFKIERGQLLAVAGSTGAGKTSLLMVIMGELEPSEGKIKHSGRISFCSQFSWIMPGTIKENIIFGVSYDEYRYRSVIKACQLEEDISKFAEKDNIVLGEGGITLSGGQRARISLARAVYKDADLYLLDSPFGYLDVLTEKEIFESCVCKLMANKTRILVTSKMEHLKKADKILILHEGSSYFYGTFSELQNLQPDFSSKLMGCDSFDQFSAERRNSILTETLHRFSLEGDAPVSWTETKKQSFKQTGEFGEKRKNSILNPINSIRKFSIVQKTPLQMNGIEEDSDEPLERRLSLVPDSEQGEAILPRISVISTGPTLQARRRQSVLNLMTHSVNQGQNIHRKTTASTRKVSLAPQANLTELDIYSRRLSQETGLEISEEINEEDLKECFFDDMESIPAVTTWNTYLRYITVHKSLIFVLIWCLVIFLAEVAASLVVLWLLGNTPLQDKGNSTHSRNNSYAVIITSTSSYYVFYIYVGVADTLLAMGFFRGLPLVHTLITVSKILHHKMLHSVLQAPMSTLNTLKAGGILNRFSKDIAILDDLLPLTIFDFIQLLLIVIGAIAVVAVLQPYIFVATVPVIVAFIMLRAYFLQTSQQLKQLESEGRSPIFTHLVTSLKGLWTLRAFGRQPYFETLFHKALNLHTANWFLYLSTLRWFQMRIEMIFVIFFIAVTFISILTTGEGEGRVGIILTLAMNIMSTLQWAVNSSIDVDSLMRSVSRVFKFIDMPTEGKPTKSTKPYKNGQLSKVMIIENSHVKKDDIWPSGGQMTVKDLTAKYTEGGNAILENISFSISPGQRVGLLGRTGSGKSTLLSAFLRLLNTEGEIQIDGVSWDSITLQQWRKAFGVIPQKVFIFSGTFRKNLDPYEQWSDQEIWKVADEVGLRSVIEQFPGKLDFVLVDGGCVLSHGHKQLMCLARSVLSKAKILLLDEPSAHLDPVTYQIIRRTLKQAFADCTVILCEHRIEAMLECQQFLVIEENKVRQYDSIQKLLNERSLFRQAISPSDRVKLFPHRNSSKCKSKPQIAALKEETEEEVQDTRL

[6] = test system: cholera toxin-induced intestinal fluid secretion; set-up: species or system mice; settings: mouse, in vivo, po
[7] = Caco-2 permeability assay; format: in vitro ADME; settings: human, pH 7.3, Caco-2 monolayers, read-out: permeability coefficient (Papp)
Method: Caco-2 cells were cultured on porous inserts to give monolayer resistances of […]. For transport studies culture medium was replaced with an equal volume of Hank's buffered salt solution (HBSS) containing 15 mM glucose and 25 mM HEPES (pH 7.3).

[8] = target: T3, ATP-sensitive K^+ channels (Rattus norvegicus, UniProt Q09429); experiment: Membrane potential recording in INS-1 pancreatic β cells (K-ATP channels); format: cell-based
T3 construct: endogenous in cells; host or cells: INS-1 rat pancreatic β cell line
T3 sequence (Q09429 whole entry): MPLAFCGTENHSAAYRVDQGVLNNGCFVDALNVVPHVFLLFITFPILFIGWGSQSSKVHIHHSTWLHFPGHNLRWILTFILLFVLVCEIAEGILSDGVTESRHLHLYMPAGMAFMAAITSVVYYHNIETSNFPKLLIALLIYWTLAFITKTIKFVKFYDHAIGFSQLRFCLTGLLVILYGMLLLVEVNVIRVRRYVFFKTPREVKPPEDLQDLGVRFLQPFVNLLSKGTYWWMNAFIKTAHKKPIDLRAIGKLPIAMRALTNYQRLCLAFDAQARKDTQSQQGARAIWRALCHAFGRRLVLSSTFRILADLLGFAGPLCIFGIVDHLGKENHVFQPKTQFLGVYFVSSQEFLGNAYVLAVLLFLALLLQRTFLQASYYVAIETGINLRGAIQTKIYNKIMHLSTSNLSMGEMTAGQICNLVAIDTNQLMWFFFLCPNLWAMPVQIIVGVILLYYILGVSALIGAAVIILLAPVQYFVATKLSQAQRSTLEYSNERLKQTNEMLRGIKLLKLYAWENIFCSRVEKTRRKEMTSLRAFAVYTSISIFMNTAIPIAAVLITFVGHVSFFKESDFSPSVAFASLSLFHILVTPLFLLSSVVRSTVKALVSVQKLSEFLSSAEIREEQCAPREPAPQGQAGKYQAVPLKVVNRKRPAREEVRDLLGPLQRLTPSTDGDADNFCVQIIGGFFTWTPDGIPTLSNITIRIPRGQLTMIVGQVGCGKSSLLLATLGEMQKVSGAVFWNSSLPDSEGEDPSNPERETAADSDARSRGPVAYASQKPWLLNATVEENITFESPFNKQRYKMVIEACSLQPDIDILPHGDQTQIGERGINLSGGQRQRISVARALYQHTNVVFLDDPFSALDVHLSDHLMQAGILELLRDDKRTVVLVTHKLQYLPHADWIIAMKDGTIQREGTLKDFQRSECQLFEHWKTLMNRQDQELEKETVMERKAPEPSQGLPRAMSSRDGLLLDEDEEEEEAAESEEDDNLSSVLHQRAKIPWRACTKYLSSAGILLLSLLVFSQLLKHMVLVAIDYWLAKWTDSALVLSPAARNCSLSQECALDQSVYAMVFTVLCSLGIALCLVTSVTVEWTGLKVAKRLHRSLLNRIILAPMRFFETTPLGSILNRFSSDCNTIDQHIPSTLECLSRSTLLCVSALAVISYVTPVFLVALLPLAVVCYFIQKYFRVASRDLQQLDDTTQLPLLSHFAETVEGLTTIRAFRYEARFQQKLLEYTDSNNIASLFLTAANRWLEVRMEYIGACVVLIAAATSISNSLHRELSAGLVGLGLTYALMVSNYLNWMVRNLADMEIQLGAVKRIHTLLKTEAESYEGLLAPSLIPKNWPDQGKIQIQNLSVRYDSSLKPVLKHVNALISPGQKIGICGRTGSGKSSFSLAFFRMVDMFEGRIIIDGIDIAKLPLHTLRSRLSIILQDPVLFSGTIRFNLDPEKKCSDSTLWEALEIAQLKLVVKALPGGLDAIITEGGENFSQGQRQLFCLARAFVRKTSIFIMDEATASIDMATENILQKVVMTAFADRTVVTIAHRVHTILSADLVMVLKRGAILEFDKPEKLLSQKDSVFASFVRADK
T3 sequence (P70673 whole entry partner): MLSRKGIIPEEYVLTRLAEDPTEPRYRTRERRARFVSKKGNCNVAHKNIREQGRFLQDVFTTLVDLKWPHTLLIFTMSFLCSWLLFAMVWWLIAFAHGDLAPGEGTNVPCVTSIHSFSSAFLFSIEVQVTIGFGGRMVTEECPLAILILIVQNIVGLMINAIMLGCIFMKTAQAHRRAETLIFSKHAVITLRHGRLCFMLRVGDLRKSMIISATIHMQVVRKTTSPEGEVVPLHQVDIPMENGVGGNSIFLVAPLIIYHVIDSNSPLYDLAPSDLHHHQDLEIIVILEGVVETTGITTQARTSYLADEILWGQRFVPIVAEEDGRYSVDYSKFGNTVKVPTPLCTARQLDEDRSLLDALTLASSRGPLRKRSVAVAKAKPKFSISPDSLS

[9] = Pharmacokinetic and oral bioavailability studies in mice; format: in vivo
Method: For comparison other mice were given ^14C-CFTRinh-172 (2 μCi) intravenously by tail vein infusion. Blood was collected from the tail vein at specified times for measurement of plasma ^14C radioactivity. At 6 hours mice were killed by pentobarbital overdose and organs were removed for measurement of radioactivity in homogenates.

O=C(O)c1ccc(/C=C2\SC(=S)N(c3cccc(C(F)(F)F)c3)C2=O)cc1 [CFTRinh-172, 3-[(3-trifluoromethyl)phenyl]-5-[(4-carboxyphenyl)methylene]-2-thioxo-4-thiazolidinone]
cholera-toxin induced fluid secretion in rat intestinal loops [1]: prevented cholera-toxin induced fluid secretion | IC50 (CFTR; forskolin (cAMP-dependent chloride secretion), read-out: concentration for fifty percent inhibition of short-circuit current): ~5 µM | IC50 (CFTR; intact intestine, read-out: apparent potency for inhibition of intestinal short-circuit current): 2 to 5 µM | organ distribution of ^14C radioactivity [2]: little radioactivity in brain, heart and skeletal muscle | cholera toxin-induced fluid secretion [3]: Inhibition of cholera toxin-induced fluid secretion | fraction present as the unionized acid ([4]; physiological pH): ~1% | pKa ([4]; spectrophotometric pH titration): 5.5 | ratio of ^14C radioactivity in urine-to-blood ([5]; mice): 5-7 | average urine radioactivity ([5]; mice, first 2 hours after infusion): 4.2±1.2×10^5 cpm/mL | ^14C radioactivity in brain, heart, skeletal muscle or testes ([5]; mice, i.v. bolus): Little radioactivity | organ distribution of ^14C radioactivity ([5]; mice, later times (30-240 min)): accumulated in the intestine | excreted radioactivity found in the urine ([5]; mice, urine and stool over first 24 hr): 93±3% | organ distribution of ^14C radioactivity ([5]; mice, within 5 min after i.v. infusion): primarily in liver and kidney | concentration of ^14C radioactivity in bile vs. blood ([5]; mouse, in vivo): ~9 fold | accumulation in other vital organs including heart, lung, skeletal muscle and testes ([5]; rodents): little CFTRinh-172 accumulation | blood-brain barrier penetration ([5]; rodents): did not significantly cross the blood-brain barrier | block of urea transporter (UT-B) (urea transporter (UT-B)): did not block | concentration non-toxic to FRT cells (FRT cells): up to 100 μM | inhibition of short-circuit current (wildtype CFTR; added from the basolateral side): inhibited short-circuit current | inhibition of short-circuit current (wildtype CFTR; apical side, amiloride, after CPT-cAMP activation): inhibited short-circuit current strongly | intestinal fluid accumulation (ratio of intestinal weight before vs. after luminal fluid removal) [6]: remarkably reduced intestinal fluid accumulation | Papp A→B at 25 μM [7]: 16 ×10⁻⁶ cm/s | effect on membrane potential ([8]; 5 μM): small hyperpolarization | effect on membrane potential ([8]; 2 and 5 μM): did not depolarize membrane potential | organ distribution ([9]; 6 hr after oral and intravenous administration): accumulation in the gastrointestinal tract as well as the liver and kidney | oral bioavailability ([9]; TPGS preparation, oral vs. intravenous tissue/serum content at 4-6 hr): 15-20% | time over which high initial serum concentrations decreased (tissue redistribution) ([9]; mice, intravenous): ~30 min | time of peak serum radioactivity ([9]; mice, oral administration in TPGS): 60 to 90 min | concentration of ^14C radioactivity in bile vs. serum ([9]; mouse, in vivo): ~10 fold | radioactivity excreted in the stool ([9]; over 24 hr): < 10 % of total excreted radioactivity
